Source: US11059855B2, “Antimicrobial peptides and methods of making and using same” (priority 2017, dated 2021)
Like-named read-outs stand apart in the source and are kept apart here.

Legend:
[1] = Pore-size characterization by 3-kDa dextran release; assay type: biochemical; conditions: ‡Large pore for PG only
From the text: Eight LDKA peptides with different lipid selectivity and pore sizes were selected from the high-throughput screen and sequenced. […] The most common mutation is L to A, occurred 13 times and in 7 out of the 8 peptides, followed by A to L, which occurred 6 times in 5 peptides, L to D which occurred 3 times in 3 peptides, and L to P that occurred once. Lysine (K) is not favorable to be shown at the position 6, 8, 10, 12, and 13, which is the non-polar face of the helical structure. […] More specifically, the analogs only induce leakage from anionic POPG vesicles have 4-5 leucines, which is less than the analogs that can porate both POPC and POPG vesicles and have 6-7 leucines in their sequences.

[2] = 3-kDa dextran macromolecule release assay, POPG; assay type: biochemical; conditions: P:L = 1:1000, pH 7 phosphate buffer
S. aureus = assay: Bacterial minimum inhibitory concentration (MIC), S. aureus; assay type: cell-based, Staphylococcus aureus; conditions: 75 μM maximum tested; NDA = not determinable
Method: (§1) Escherichia colt strain ATCC 25922, Staphylococcus aureus strain ATCC 25923, and Pseudomonas aeruginosa strain ATCC PAO1 were used in this study. Overnight cultures were subcultured to log phase (OD600=0.3-0.6) after which cell counts were determined by measuring the OD600 (OD600 1.0=1.5×10^8 CFU/mL for S. aureus, 5×10^8 CFU/mL for E. colt, and 2.04×10^8 CFU/mL for P. aeruginosa). Bacteria in minimal media mere added to serially diluted peptides and incubated for 3 hr, followed by the addition of full growth media. After overnight incubation, the optical density of the wells was recorded on a plate reader to determine whether they were sterilized (OD<0.08) or were at stationary phase growth (OD600>0.5). Intermediate values, which were rare, were considered positive for growth. Average minimum sterilizing concentrations were calculated from the lowest peptide concentration that sterilized the bacteria in each serial dilution. The samples were done in sextuplet.

[3] = Circular dichroism secondary structure (Dichroweb), peptide only; assay type: physicochemical; conditions: 20 °C
Method: (§2) Dichroweb software analyzes the secondary structure of LDKA peptides from circular dichroism spectroscope. The table presents the percentage of each helix and strand structure at different temperature. The data are analyzed using CONTIN-LL method and Reference Set 4 (Optimised for 190-240 nm).
(§3) Peptide solutions (peptide concentration is 50 μM) were titrated with POPC and POPG LUVs (50, 100, 250, 500, 1000 μM) and the corresponding changes CD spectra collected. Analysis of these spectra using CD tools and Dichroweb provides an ensemble average of the changes in secondary structure in the presence of POPC and POPG LUVs (dichroweb.cryst.bbk.ac.uk), which gives a direct measure of the binding free energies for each peptide.

[4] = ANTS/DPX leakage assay, POPC; assay type: biochemical; conditions: P:L = 1:1000, pH 7 phosphate buffer
Method: (§4) 5 mM ANTS and 12.5 mM DPX were entrapped in 0.1 μm diameter extruded vesicles with lipids. Gel filtration chromatography of Sephadex G-100 (GE Healthcare Life Sciences Inc.) was used to remove external free ANTS/DPX from LUVs with entrapped contents. […] Leakage was measured after 3 hr incubation. 10% Triton was used as the positive control to measure the maximum leakage of the vesicle. Fluorescence emission spectra were recorded using excitation wavelength (Ex: 350 nm) and emission wavelength (Em: 510 nm) for ANTS/DPX using Synergy H1 Hybrid Multi-Mode Reader.
(§5) This detects and quantifies the release of a small fluorescent dye (ANTS/DPX; MW=˜400 Da) encapsulated in LUVs after addition of library peptides. Neutral POPC LUVs serve as a simple model for mammalian membranes, while charged POPG LUVs mimic bacterial membranes enriched in anionic lipids.

P. aeruginosa = assay: Bacterial minimum inhibitory concentration (MIC), P. aeruginosa; assay type: cell-based, Pseudomonas aeruginosa; conditions: 75 μM maximum tested; NDA = not determinable
Method: as §1

[5] = test system: methicillin-resistant Staphylococcus aureus (MRSA); assay type: cell-based; conditions: 75 μM maximum tested; NDA = not determinable
Escherichia coli biofilm = assay: Activity against biofilm, E. coli; assay type: cell-based; conditions: 67-150 μM peptide, 3 hr treatment
Method: Selected analogues were tested with each (13A). Escherichia coli biofilm, (13B). Staphylococcus aureus biofilm, and (13C) Pseudomonas aeruginosa biofilm.
However, most of the LDKA analogues fail to treat S. aureus and P. aeruginosa biofilms. Only K7H and 7F3 are capable to reduce S. aureus biofilms by ˜50% with 100 μM peptide concentration, and none of the analogues work against P. aeruginosa biofilms (FIGS. 13a-13c).

[6] = Membrane selectivity from high-throughput dye leakage screen; assay type: biochemical; conditions: PC = POPC, PG = POPG
From the text: as §5

[7] = provided by the distributor, GenScript; cited from earlier work
[8] = ANTS/DPX leakage assay, POPG; assay type: biochemical; conditions: P:L = 1:1000, pH 7 phosphate buffer
Method: as §4, §5

[9] = Circular dichroism secondary structure (Dichroweb), with POPC; assay type: physicochemical
Method: as §2, §3

[10] = Circular dichroism secondary structure (Dichroweb), with POPG; assay type: physicochemical
Method: as §2, §3

[11] = 3-kDa dextran macromolecule release assay, POPC; assay type: biochemical; conditions: P:L = 1:1000, pH 7 phosphate buffer
Method: Several different size dextrans were prepared and labelled with both TAMRA and biotin. Conjugated dextran was entrapped in POPC LUVs as described above. External dextran was removed by incubation with immobilized streptavidin. Streptavidin labelled with an Alexa-488 fluorophore was added during the leakage experiment with the peptide as previous described.^5 The sample was then incubated for 3 hr before measuring Alexa-488 fluorescence. A control without added peptide served as the 0% leakage signal and addition of 0.05% vol. Triton X-100 was used to determine 100% leakage.

Hemolysis assay = assay type: cell-based, human; conditions: human
Method: Fresh human red blood cells were obtained from Interstate Blood Bank, Inc., and thoroughly washed in PBS until the supernatant was clear. hRBC concentration was determined using a standard hemocytometer. In hemolysis assays serial dilutions of peptide were prepared, followed by the addition of 2×10^8 hRBC/mL. After incubation for 1 hr at 37° C. the cells were centrifuged and the released hemoglobin was measured by optical absorbance of the heme group (410 nm). Negative control was buffer only (0% lysis), and the positive control was 20 μM melittin and distilled water (100% lysis). The samples were done in triplicate.

[12] = test system: ciprofloxacin-resistant E. coli
Method: “N.D.” means “not determined”.
Ceftazidime is active on the bacteria's cell wall and interferes with bacterial cell wall formation.^38,39 Ciprofloxacin is able to inhibit DNA gyrase, type II topoisomerase, and topoisomerase IV to separate bacterial DNA and inhibits cell division.^40 Streptomycin and gentamicin are antibiotics that can interrupt and inhibit protein synthesis.^41,42 E. coli strain ATCC 25922 cultures were grown in the presence of each of these antibiotics at elevated concentration for 10 generations.

Substance | Pore size [1] | Peptide-only, Strand [3] [%] | ANTS/DPX release, POPC [4] [%] | Minimum Inhibitory Concentration, P. aeruginosa (P. aeruginosa) | Minimum Inhibitory Concentration, MRSA [5] | Elimination of E. coli biofilm (Escherichia coli biofilm) [%] | Membrane selectivity (POPC vs POPG vesicles) [6] | Solubility, DMSO [7] [mg/mL] | Solubility, DPBS pH 7.1 [7] [mg/mL] | Solubility, Ultrapure Water [7] [mg/mL] | ANTS/DPX release, POPG [8] [%] | Peptide-POPC, Helix ([9]; 20 °C) [%] | Peptide-POPC, Strand ([9]; 20 °C) [%] | Peptide-POPC, Helix ([9]; 45 °C) [%] | Peptide-POPC, Strand ([9]; 45 °C) [%] | Peptide-POPC, Helix ([9]; 70 °C) [%] | Peptide-POPC, Strand ([9]; 70 °C) [%] | Peptide-POPC, Helix ([9]; 95 °C) [%] | Peptide-POPC, Strand ([9]; 95 °C) [%] | Peptide-POPG, Helix ([10]; 20 °C) [%] | further results
H-GLADAAKLLLKAAGW-NH2 [Peptide 11D12] | Large | 8 | 8 | NDA | NDA | ~50 | PG > PC | 20 | 10 | 10 | 101 | 38 | 12 | 39 | 10 | 39 | 9 | 33 | 12 | 96 | 3-kDa Dextran release, POPG [2]: 58%; Minimum Inhibitory Concentration, S. aureus (S. aureus): NDA; Peptide-POPG, Strand ([10]; 20 °C): 0%; Peptide-POPG, Helix ([10]; 45 °C): 92%; Peptide-POPG, Strand ([10]; 45 °C): 0%; Peptide-POPG, Helix ([10]; 70 °C): 90%; Peptide-POPG, Strand ([10]; 70 °C): 0%; Peptide-POPG, Helix ([10]; 95 °C): 77%; Peptide-POPG, Strand ([10]; 95 °C): 1%
H-GLDDLAKLLLKLAGW-NH2 [Peptide 25B2] | Large‡ | 3 | 98 | NDA | NDA | ~50 | Non-selective | 15 | <0.1 | 10 | 99 | 80 | 3 | 90 | 1 | 81 | 1 | 61 | 6 | 98 | 3-kDa Dextran release, POPC [11]: -2%; 3-kDa Dextran release, POPG [2]: 100%; HC50 at 1 hr (Hemolysis assay): 35.5 µM; MIC, ciprofloxacin-resistant E. coli [12]: completely fail; Peptide-only, Helix [3]: 67%; Peptide-POPG, Strand ([10]; 20 °C): 0%; Peptide-POPG, Helix ([10]; 45 °C): 98%; Peptide-POPG, Strand ([10]; 45 °C): 0%; Peptide-POPG, Helix ([10]; 70 °C): 93%; Peptide-POPG, Strand ([10]; 70 °C): 0%; Peptide-POPG, Helix ([10]; 95 °C): 87%; Peptide-POPG, Strand ([10]; 95 °C): 1%
H-GLDDLLKALLKAAGW-NH2 [Peptide 4H9] | Small | 2 | 110 | NDA | NDA | ~50 | PC > PG | 15 | 10 | 5 | 43 | 82 | 0 | 77 | 0 | 66 | 4 | 47 | 11 | 93 | 3-kDa Dextran release, POPC [11]: -4%; HC50 at 1 hr (Hemolysis assay; peptide concentration lysing 50% of red blood cells, estimated using polynomial regression, read-out: Hemolysis Assay LC50): 56.6 µM; MIC, ciprofloxacin-resistant E. coli [12]: completely fail; Peptide-only, Helix [3]: 63%; Peptide-POPG, Strand ([10]; 20 °C): 0%; Peptide-POPG, Helix ([10]; 45 °C): 91%; Peptide-POPG, Strand ([10]; 45 °C): 0%; Peptide-POPG, Helix ([10]; 70 °C): 83%; Peptide-POPG, Strand ([10]; 70 °C): 0%; Peptide-POPG, Helix ([10]; 95 °C): 73%; Peptide-POPG, Strand ([10]; 95 °C): 1%
H-GLLDAAKLLAKAAGW-NH2 [Peptide 24F1] | Large | 14 | 15 | 66 µM | NDA | ~50 | PG > PC | 15 | 5 | 10 | 100 | 32 | 16 | 32 | 16 | 27 | 17 | 24 | 22 | 91 | 3-kDa Dextran release, POPG [2]: 69%; Minimum Inhibitory Concentration, S. aureus (S. aureus): NDA; Peptide-POPG, Strand ([10]; 20 °C): 0%; Peptide-POPG, Helix ([10]; 45 °C): 88%; Peptide-POPG, Strand ([10]; 45 °C): 1%; Peptide-POPG, Helix ([10]; 70 °C): 77%; Peptide-POPG, Strand ([10]; 70 °C): 1%; Peptide-POPG, Helix ([10]; 95 °C): 66%; Peptide-POPG, Strand ([10]; 95 °C): 2%
H-GLLDLPKALAKALGW-NH2 [Peptide 7G6] | Small | 10 | 48 | NDA | NDA | ~50 | PG > PC | 15 | 15 | 10 | 105 | 49 | 10 | 56 | 6 | 47 | 10 | 30 | 20 | 86 | 3-kDa Dextran release, POPG [2]: -1%; Minimum Inhibitory Concentration, S. aureus (S. aureus): NDA; Peptide-POPG, Strand ([10]; 20 °C): 2%; Peptide-POPG, Helix ([10]; 45 °C): 87%; Peptide-POPG, Strand ([10]; 45 °C): 2%; Peptide-POPG, Helix ([10]; 70 °C): 82%; Peptide-POPG, Strand ([10]; 70 °C): 3%; Peptide-POPG, Helix ([10]; 95 °C): 75%; Peptide-POPG, Strand ([10]; 95 °C): 3%
